# Experiments:
# CD-1 mice = conditions: 150 mg/kg single dose one hour before formalin; vs non-treated animals; 10 to 35 minutes after formalin (chronic phase); p<0.05 (FIG. 2)
# Description: Evaluation of pain is based on the observed behavior of the animals after the formalin injection.
# Formalin stock (Frutarom Ltd., Israel; cat. # 5551830; 3.4-3.8% formaldehyde content) was diluted into 2.5% formalin solution in saline. 25 μl of the 2.5% formalin solution was injected into the plantar surface of CD-1 mice foot using a syringe with a 29G needle. The animals' reaction, apparent as licking and lifting the paw off the ground, is noticed immediately after injection. Each of the treated animals and control naive animals injected only with formalin was monitored for a period of 40 min, through 5 minutes time segments (4-6 animals in a group).
# Evaluation of pain was performed by recording the time the animal spent licking its paw. A computerized program was used for timing the total number of seconds each animal spent licking its paw during the preset period of 5 min. This step was repeated for up to 40 min (8 intervals of 5 min).
# Sprague-Dawley (SD) rats = conditions: rats day 15 post-CCI operation, s.c. 150 mg/kg, vs vehicle (FIG. 3)
# Description: Male, Sprague-Dawley (SD) rats, weighing around 200-250 grams, were anesthetized by i.p. injection of ketamine (50 mg/kg) and xylazine (10 mg/kg). The common sciatic nerve was exposed at the middle of the thigh of the hind right foot. Four ligatures were tied loosely around the nerve with a spacing of about 1 mm between them. The incision was closed by suturing the inner layers of the muscles with chromic gut suture, and the outer skin with silk suture. Five to seven days later the nociceptive threshold can be evaluated by quantifying sensitivity of the foot to mechanical stimuli or cold temperatures to assess allodynia.
# The mechanical sensitivity of the animal foot is measured using the von Frey test [Kim and Chung (1992) Pain 50: 355-63]. An automated von Frey test was employed, in which a von Frey filament is applied to the plantar surface of the animal foot and the filament is pushed automatically at a preset rate of force/time increments into the plantar. Each measurement was repeated 2-3 times in each epsilateral and contralateral foot of the tested animals. The time lapsed from applying of pressure until withdrawal of the foot from the innocuous stimulus was measured in the treated animals and compared to the baseline values obtained for each animal prior to treatment.
# As a control served CCI-operated animals injected with vehicle only.
# Male CD-1 mice = assay: Tail flick assay (radiated heat, acute pain) in mice;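 further: infrared heat aimed at the tail of restrained mice, time until tail flick recorded as mean of 2-3 readings, 4-8 animals per group, compared with vehicle-treated animals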
# Description: The analgesic effect of branched-chain fatty acids (BFAs) and their DP-BFAs derivatives was tested by using the tail flick assay in mice.
# This model uses radiated infrared (IR) heat source that is directed to the tail of a restrained mouse. The threshold of tolerance for heat is indicated by a time-meter, which is stopped instantaneously when the tail flicks. This time is defined as ‘withdrawal latency’.
# Male CD-1 mice weighing around 25-30 grams (4-8 animals per each dose of the tested compound) were used. The animals were put in clear plastic cages above an IR source (7371-Plantar™ Analgesia Instrument, UGO Basile), where the IR generator is placed directly underneath the tail of the mouse and the light beam is focused on the proximal third of the tail.
# The withdrawal latency, namely the time interval from the starting of the infrared radiation until the animal feels pain and flicks its tail is determined. The initial withdrawal latency for each animal was measured at t=0 and was determined as its baseline threshold.
# In order to determine the analgesic effect of a tested drug, the drug (10 to 200 mg/kg body weight) was administered to mice either orally (p.o.) or by intraperitoneal (i.p.) or subcutaneous (s.c.) injection. Withdrawal latency was determined at different time points post-administration of the drug as indicated. Each reading was performed 2-3 times and the mean-value was calculated. […] The withdrawal latency at each time point post injection is the average of 4-8 animals per group. […] Paired T-test was used to assess significance in comparison to the baseline value (t=0). Morphine was used as a positive control (2 animals per dose).
substance,measurement,setting,value
8-Pentadecanyl phosphocholine,time the animal spent licking its paw,CD-1 mice,significant less time licking their paw
same,"withdrawal threshold (mechanical allodynia, von Frey)",Sprague-Dawley (SD) rats,increased withdrawal threshold
same,Withdrawal latency (% of vehicle),"Male CD-1 mice; I.P., 100 mg/kg, 15 min post-injection",235% of vehicle
same,Withdrawal latency (% of vehicle),"Male CD-1 mice; I.P., 100 mg/kg, 45 min post-injection",134% of vehicle
same,Withdrawal latency (% of vehicle),"Male CD-1 mice; I.P., 100 mg/kg, 75 min post-injection",177% of vehicle
same,Withdrawal latency (% of vehicle),"Male CD-1 mice; I.P., 100 mg/kg, 105 min post-injection",134% of vehicle
same,Withdrawal latency (% of vehicle),"Male CD-1 mice; I.P., 100 mg/kg, 135 min post-injection",141% of vehicle
same,Withdrawal latency (% of vehicle),"Male CD-1 mice; I.P., 100 mg/kg, 285 min post-injection",145% of vehicle
same,Withdrawal latency (% of vehicle),"Male CD-1 mice; P.O., 50 mg/kg, 45 min post-administration",149% of vehicle
same,Withdrawal latency (% of vehicle),"Male CD-1 mice; P.O., 50 mg/kg, 75 min post-administration",157% of vehicle
same,Withdrawal latency (% of vehicle),"Male CD-1 mice; P.O., 50 mg/kg, 105 min post-administration",145% of vehicle
same,Withdrawal latency (% of vehicle),"Male CD-1 mice; P.O., 50 mg/kg, 135 min post-administration",137% of vehicle
same,Withdrawal latency (% of vehicle),"Male CD-1 mice; P.O., 50 mg/kg, 285 min post-administration",127% of vehicle
same,Withdrawal latency (% of vehicle),"Male CD-1 mice; P.O., 50 mg/kg, 345 min post-administration",124% of vehicle
same,Withdrawal latency (% of vehicle),"Male CD-1 mice; S.C., 25 mg/kg, 45 min post-injection",147% of vehicle
same,Withdrawal latency (% of vehicle),"Male CD-1 mice; S.C., 25 mg/kg, 75 min post-injection",143% of vehicle
same,Withdrawal latency (% of vehicle),"Male CD-1 mice; S.C., 25 mg/kg, 105 min post-injection",165% of vehicle
same,Withdrawal latency (% of vehicle),"Male CD-1 mice; S.C., 25 mg/kg, 135 min post-injection",169% of vehicle
same,Withdrawal latency (% of vehicle),"Male CD-1 mice; S.C., 25 mg/kg, 285 min post-injection",141% of vehicle
same,Withdrawal latency (% of vehicle),"Male CD-1 mice; S.C., 25 mg/kg, 345 min post-injection",130% of vehicle
same,Withdrawal latency (% of vehicle),"Male CD-1 mice; S.C., 150 mg/kg, 45 min post-injection",194% of vehicle
same,Withdrawal latency (% of vehicle),"Male CD-1 mice; S.C., 150 mg/kg, 75 min post-injection",217% of vehicle
same,Withdrawal latency (% of vehicle),"Male CD-1 mice; S.C., 150 mg/kg, 105 min post-injection",186% of vehicle
same,Withdrawal latency (% of vehicle),"Male CD-1 mice; S.C., 150 mg/kg, 135 min post-injection",175% of vehicle
same,Withdrawal latency (% of vehicle),"Male CD-1 mice; S.C., 150 mg/kg, 285 min post-injection",184% of vehicle
same,Withdrawal latency (% of vehicle),"Male CD-1 mice; S.C., 150 mg/kg, 345 min post-injection",175% of vehicle
same,increase in withdrawal latency,"Male CD-1 mice; s.c., 150 mg/kg, 5-6 hours post injection",around 80%
same,potency ranking in the assay,Male CD-1 mice; tail flick,most potent
same,"size of analgesic effect, ranking among tested compounds","Male CD-1 mice; tail flick, Table 1",largest analgesic effects
